Assay results taken from US20070167513A1, “Crystalline forms of duloxetine free base” (priority 2004, published 2007).
Structures can show the parent of a compound that is named as a salt. Where two headings read alike, the source gives them in different places.

[1] = before exposure to heat or light
[2] = before exposure to heat or light, Hydrochloride
[3] = stress condition 45° C., Hydrochloride
[4] = stress condition 60° C., Hydrochloride
[5] = stress condition UV, Hydrochloride

In the case of CNCC[C@H](Oc1cccc2ccccc12)c1cccs1 [DULOXETINE HCI (from free base), Duloxetine Hydrochloride], the Description [1] is reported as “White powder”, the “SMI (single maximum impurity)” value [2] is reported as 0.05% and the Total imp [2] is reported as 0.11%. For the same compound, the resistance to degradation (compared with duloxetine hydrochloride prepared by conventional prior art methods) was “more resistant to degradation”, the Description [3] was “White powder” and the “SMI (single maximum impurity)” value [3] was 0.07%. For the same compound, the Total imp [3] was 0.12%, the Description [4] was “White powder” and the “SMI (single maximum impurity)” value [4] was 0.07%. For the same compound, the Total imp [4] was 0.12%, the Description [5] was “Cream” and the “SMI (single maximum impurity)” value [5] was 0.06%. It also gave a Total imp [5] of 0.11%.

In the case of CNCC[C@H](Oc1cccc2ccccc12)c1cccs1 [[…] (from prior art)] [Duloxetine Hydrochloride, reference compound], the Description [1] is reported as “White powder”, the “SMI (single maximum impurity)” value [2] is reported as 0.20% and the Total imp [2] is reported as 0.48%. For the same compound, the Description [3] was “Cream coloured”, the “SMI (single maximum impurity)” value [3] was 0.19% and the Total imp [3] was 0.65%. For the same compound, the Description [4] was “Light pink”, the “SMI (single maximum impurity)” value [4] was 0.19% and the Total imp [4] was 0.70%. The Description [5] was “Light brown”, the “SMI (single maximum impurity)” value [5] was 0.19% and the Total imp [5] was 0.66%.
